Assay results: patent publication US10059689B2, “Substituted heteroaryl compounds and methods of use” (Sunshine Lake Pharma Co., Ltd., priority 2014, dated 2018)

Experiments:
[1] = Compound stability in human liver microsomes; type: in vitro ADME; settings: for half-life: pH 7.4, 37° C., NADPH, read-out: Human T1/2; for CLint scaled: pH 7.4, in vivo CLint extrapolated
Description: (§1) Human or rat liver microsomes incubations were conducted in duplicate in polypropylene tubes. The typical incubation mixtures consisted of human or rat liver microsomes (0.5 mg protein/mL), compounds of interest (5 μM) and NADPH (1.0 mM) in a total volume of 200 μL potassium phosphate buffer (PBS, 100 mM, pH 7.4). Compounds were dissolved in DMSO and diluted with PBS such that the final concentration of DMSO was 0.05%. The enzymatic reactions were commenced with the addition of protein after a 3-min preincubation and incubated in a water bath open to the air at 37° C. Reactions were terminated at various time points (0, 5, 10, 15, 30, 60 min) by adding equal volume of ice-cold acetonitrile. The samples were stored at −80° C. until LC/MS/MS assays.
(§2) The concentrations of compounds in the incubation mixtures of human or rat liver microsomes were determined by a LC/MS/MS method. The ranges of the linearity in the concentration range were determined for each tested compounds.
(§3) A parallel incubation was performed using denatured microsomes as the negative control, and reactions were terminated at various time points (0, 15, 60 min) after incubation at 37° C.
(§4) Verapamil (1 μM) was selected as the positive control, and reactions were terminated at various time points (0, 5, 10, 15, 30, 60 min) after incubation at 37° C. Both positive and negative control samples were included in each assay to ensure the integrity of the microsomal incubation system.
(§5) In addition, the stability date of compound in human and rat liver microsomes was also obtained through the following method. Human or rat liver microsomes incubations were conducted in duplicate in polypropylene tubes. The typical incubation mixtures consisted of human or rat liver microsomes (0.5 mg protein/mL), compounds of interest (1.5 μM) and EDTA (1.0 mM) in a total volume of 30 μL potassium phosphate buffer (PBS, 100 mM, pH 7.4). Compounds were dissolved in DMSO and diluted with PBS such that the final concentration of DMSO was 0.2%. The enzymatic reactions were commenced with the addition of 15 μL NADPH (final concentration: 2 mM) after a 10-min preincubation and incubated in a water bath open to the air at 37° C. Reactions were terminated at various time points (0, 15, 30, 60 min) by adding 135 μL acetonitrile (contain IS). The samples were centrifuged at 4000 rpm for 10 min to remove protein, the supernatant was stored at −80° C. until LC/MS/MS assays. Ketanserin (1 μM) was selected as the positive control, and reactions were terminated at various time points (0, 15, 30, 60 min) after incubation at 37° C. Both positive and negative control samples were included in each assay to ensure the integrity of the microsomal incubation system.
(§6) The concentrations of compounds in human or rat liver microsome incubations were plotted as a percentage of the relevant zero time point control for each reaction. The in vivo CLint were extrapolated (ref.: Naritomi, Y.; Terashita, S.; Kimura, S.; Suzuki, A.; Kagayama, A.; and Sugiyama, Y.; Prediction of human hepatic clearance from in vivo animal experiments and in vitro metabolic studies with liver microsomes from animals and humans. Drug Metab. Dispos., 2001, 29: 1316-1324).

[2] = Compound stability in rat liver microsomes; type: in vitro ADME; settings: for half-life: pH 7.4, 37° C., NADPH, read-out: Rat T1/2; for CLint scaled: pH 7.4, in vivo CLint extrapolated
Description: as §1, §2, §3, §4, §5, §6

[3] = target: T1, JAK1 (h) (Homo sapiens, UniProt P23458); assay: JAK1 (h) kinase assay; type: biochemical
T1 construct: purchased Millipore UK Ltd (contract assay service)
T1 sequence (P23458 whole entry): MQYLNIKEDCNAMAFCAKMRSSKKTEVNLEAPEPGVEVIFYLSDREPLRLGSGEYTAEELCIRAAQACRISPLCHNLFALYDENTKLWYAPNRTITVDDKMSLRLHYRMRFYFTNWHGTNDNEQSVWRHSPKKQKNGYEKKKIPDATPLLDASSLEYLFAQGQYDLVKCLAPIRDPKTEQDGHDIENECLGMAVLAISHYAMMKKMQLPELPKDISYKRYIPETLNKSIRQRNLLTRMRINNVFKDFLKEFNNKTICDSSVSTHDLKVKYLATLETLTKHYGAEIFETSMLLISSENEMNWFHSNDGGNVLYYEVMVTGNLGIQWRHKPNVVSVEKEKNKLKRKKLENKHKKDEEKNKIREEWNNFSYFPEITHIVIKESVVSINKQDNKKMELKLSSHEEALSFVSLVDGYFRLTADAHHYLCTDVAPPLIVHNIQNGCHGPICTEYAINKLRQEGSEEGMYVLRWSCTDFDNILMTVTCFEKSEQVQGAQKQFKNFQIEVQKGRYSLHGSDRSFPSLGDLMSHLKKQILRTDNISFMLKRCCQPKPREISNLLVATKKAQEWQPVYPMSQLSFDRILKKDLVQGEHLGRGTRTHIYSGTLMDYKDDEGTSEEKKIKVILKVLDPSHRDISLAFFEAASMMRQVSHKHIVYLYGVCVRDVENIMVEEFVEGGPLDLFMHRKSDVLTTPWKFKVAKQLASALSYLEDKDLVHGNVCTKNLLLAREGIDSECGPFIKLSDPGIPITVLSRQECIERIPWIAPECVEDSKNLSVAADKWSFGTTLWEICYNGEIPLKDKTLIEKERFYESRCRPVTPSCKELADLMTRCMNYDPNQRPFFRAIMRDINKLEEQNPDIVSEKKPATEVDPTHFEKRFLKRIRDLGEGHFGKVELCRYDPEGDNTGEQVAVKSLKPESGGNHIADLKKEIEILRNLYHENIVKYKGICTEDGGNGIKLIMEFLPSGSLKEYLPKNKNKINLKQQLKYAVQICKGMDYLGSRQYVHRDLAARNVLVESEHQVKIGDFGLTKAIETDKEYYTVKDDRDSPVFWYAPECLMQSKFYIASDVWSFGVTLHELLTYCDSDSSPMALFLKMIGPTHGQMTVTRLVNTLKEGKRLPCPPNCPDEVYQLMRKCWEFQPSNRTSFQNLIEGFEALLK
Description: (§7) The above assay procedure can be used to determine the IC50 for inhibition and/or the inhibition constant, Ki. The IC50 is defined as the concentration of compound required to reduce the enzyme activity by 50% under the condition of the assay. The IC50 value is estimated by preparing a 10 point curve using a ½ log dilution series (for example, a typical curve may be prepared using the following compound concentrations: 3 μM, 1 μM, 0.3 μM, 0.1 μM, 0.03 μM, 0.01 μM, 0.003 μM, 0.001 μM, 0.0003 μM and 0 μM).
(§8) JAK1 (h) is incubated with 20 mM Tris/HCl pH 7.5, 0.2 mM EDTA, 500 μM GEEPLYWSFPAKKK, 10 mM MgAcetate and [γ-^33P-ATP] (specific activity approx. 500 cpm/pmol, concentration as required). The reaction is initiated by the addition of the MgATP mix. After incubation for 40 minutes at room temperature, the reaction is stopped by the addition of 3% phosphoric acid solution. 10 μL of the reaction is then spotted onto a P30 filtermat and washed three times for 5 minutes in 75 mM phosphoric acid and once in methanol prior to drying and scintillation counting.
(§9) The kinase assays described herein were performed at Millipore UK Ltd, Dundee Technology Park, Dundee DD2 1SW, UK.

[4] = target: T2, JAK2 (h) (Homo sapiens, UniProt O60674); assay: JAK2 (h) kinase assay; type: biochemical
T2 construct: purchased Millipore UK Ltd (contract assay service)
T2 sequence (O60674 whole entry): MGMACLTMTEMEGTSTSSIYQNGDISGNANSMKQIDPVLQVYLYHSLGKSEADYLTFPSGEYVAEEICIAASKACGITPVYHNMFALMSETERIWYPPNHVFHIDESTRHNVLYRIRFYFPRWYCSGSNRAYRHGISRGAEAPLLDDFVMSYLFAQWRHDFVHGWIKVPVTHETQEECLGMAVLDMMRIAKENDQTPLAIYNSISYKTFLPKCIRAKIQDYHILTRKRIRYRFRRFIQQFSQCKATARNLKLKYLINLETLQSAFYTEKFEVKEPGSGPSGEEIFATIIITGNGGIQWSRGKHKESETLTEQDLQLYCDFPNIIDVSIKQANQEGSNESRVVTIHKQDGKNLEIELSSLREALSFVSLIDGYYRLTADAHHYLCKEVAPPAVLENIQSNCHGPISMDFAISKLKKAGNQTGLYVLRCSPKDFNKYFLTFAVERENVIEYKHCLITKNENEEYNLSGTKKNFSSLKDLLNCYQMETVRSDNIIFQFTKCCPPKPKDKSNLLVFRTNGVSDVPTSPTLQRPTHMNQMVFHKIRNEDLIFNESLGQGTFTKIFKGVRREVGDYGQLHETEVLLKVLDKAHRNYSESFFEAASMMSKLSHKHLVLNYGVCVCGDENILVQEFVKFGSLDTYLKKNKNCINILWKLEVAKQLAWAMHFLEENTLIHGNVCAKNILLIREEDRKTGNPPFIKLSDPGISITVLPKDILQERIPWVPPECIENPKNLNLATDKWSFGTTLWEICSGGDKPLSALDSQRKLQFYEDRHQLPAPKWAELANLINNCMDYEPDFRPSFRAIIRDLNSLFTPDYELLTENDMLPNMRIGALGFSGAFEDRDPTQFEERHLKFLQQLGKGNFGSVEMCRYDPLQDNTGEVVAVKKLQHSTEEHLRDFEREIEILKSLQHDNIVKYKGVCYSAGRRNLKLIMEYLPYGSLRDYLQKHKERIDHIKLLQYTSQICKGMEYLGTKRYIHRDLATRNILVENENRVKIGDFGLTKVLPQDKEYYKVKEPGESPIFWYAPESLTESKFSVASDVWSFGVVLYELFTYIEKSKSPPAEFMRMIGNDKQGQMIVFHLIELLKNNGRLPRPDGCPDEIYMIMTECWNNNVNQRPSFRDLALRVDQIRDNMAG
Description: as §7
as §8, with “JAK2 (h)” for “JAK1 (h)”, “with 8” for “with 20”, “mM MOPS” for “mM Tris/HCl”, “pH 7.0,” for “pH 7.5,”, “EDTA, 100” for “EDTA, 500”, “μM […],” for “μM GEEPLYWSFPAKKK,”
as §9

half-life [1] [min]	CLint scaled [1] [mL/min/kg]	half-life [2] [min]	CLint scaled [2] [mL/min/kg]	IC50 [3] [nM]	IC50 [4] [nM]	Structure (SMILES)
40.8	42.6	27.7	89.7	< 0.3	0.5	Cn1cc(Nc2ncc(Cl)c(NC3CCN(c4ccc(C#N)cn4)CC3)n2)cn1 [Ex. 1, 6-(4-((5-chloro-2-((1-methyl-1H-pyrazol-4-yl)amino)pyrimidin-4-yl)amino)piperidin-1-yl)nicotinonitrile]
13.2	131	23.2	107	0.3	2	Cc1c2ccc(Nc3ncc(Cl)c(NC4CCN(c5ccc(C#N)cn5)CC4)n3)cc2nn1C [Ex. 4]
22.9	75.7	16.5	150	0.8	17	CN(c1nc(Nc2cnn(C)c2)ncc1Cl)C1CCN(c2ccc(C#N)cn2)CC1 [Ex. 5, 6-(4-((5-chloro-2-((1-methyl-1H-pyrazol-4-yl)amino)pyrimidin-4-yl) (methyl)amino)piperidin-1-yl)nicotinonitrile]
5.51	315	17.4	142	< 0.3	1	Cc1nn(C)cc1Nc1ncc(Cl)c(NC2CCN(c3ccc(C#N)cn3)CC2)n1 [Ex. 10, 6-(4-((5-chloro-2-((1,3-dimethyl-1H-pyrazol-4-yl)amino)pyrimidin-4-yl)amino)piperidin-1-yl)nicotinonitrile]
13.1	133	23.6	105	0.4	2	Cc1nn(C)cc1Nc1ncc(Cl)c(NC2CCN(c3ccc(C#N)nn3)CC2)n1 [Ex. 11, 6-(4-((5-chloro-2-((1,3-dimethyl-1H-pyrazol-4-yl)amino)pyrimidin-4-yl)amino)piperidin-1-yl)pyridazine-3-carbonitrile]
25.3	68.8	18.9	131	< 0.3	< 0.3	Cc1c2ccc(Nc3ncc(Cl)c(NC4CCN(c5ccc(C#N)nn5)CC4)n3)cc2nn1C [Ex. 12, 6-(4-((5-chloro-2-((2,3-dimethyl-2H-indazol-6-yl)amino)pyrimidin-4-yl)amino)piperidin-1-yl)pyridazine-3-carbonitrile]
68.2	25.5	9.68	257	0.4	1	Cc1cc(Nc2ncc(Cl)c(NC3CCN(c4ccc(C#N)nn4)CC3)n2)nn1C [Ex. 13, 6-(4-((5-chloro-2-((1,5-dimethyl-1H-pyrazol-3-yl)amino)pyrimidin-4-yl)amino)piperidin-1-yl)pyridazine-3-carbonitrile]
